Data taken from US20250229272A1, “Headspace Eliminating Microtiter Plate Lid” (Agilent Technologies, Inc., priority 2022, published 2025).

Tested on: mitochondrial network
Assay: MitoTracker imaging of the mitochondrial network in cells incubated with compounds (Cytation 5)
Assay type: cell-based
Details: cells loaded with MitoTracker and hoechst; imaged while incubating with compounds; compared to the control; FIG. 15
Protocol: Cells were loaded with MitoTracker and hoechst as per manufactures instructions. Cells were washed with media then the media was replaced with media containing MitoXpress Xtra. Imaging was carried out as the plate was incubating with compounds using a Cytation 5 with a RFP LED/Filter set. Then, the lid of the present disclosure was placed onto the base of the plate assembly and MitoXpress Assay was run as normal.
The effects in structure are then reflected in the rates of oxygen consumption showing a direct correlation between structure and function. Different compounds lead to different effects. Some promote fusion, some inhibit fusion, some fission some limit fission. The novel insight with this method is to correlate changes in structure of the mitochondria to functional changes in respiration as shown in FIG. 16 in the same well for the first time.

| Compound | effects of compounds on the mitochondrial network |
| --- | --- |
| CC[C@H]1/C=C/C=C/C[C@@H](C)[C@H](O)[C@@](C)(O)C(=O)[C@@H](C)[C@H](O)[C@@H](C)C(=O)[C@@H](C)[C@H](O)[C@@H](C)/C=C/C(=O)O[C@@H]2[C@H](C)[C@H](CC1)O[C@]1(CC[C@H](C)[C@H](C[C@@H](C)O)O1)[C@H]2C [Oligomycin] | cause the network to condense, and divide |
| C=C(C)[C@H]1Cc2c(ccc3c2O[C@@H]2COc4cc(OC)c(OC)cc4[C@@H]2C3=O)O1 [Rotenone] | cause the network to condense, and divide |
| Antimycin | cause the network to condense, and divide |
